# From US20230105212A1, “BIPHENYL DERIVATIVE INHIBITOR, PREPARATION METHOD THEREFOR AND USE THEREOF” (SHANGHAI HANSOH BIOMEDICAL CO., LTD., priority 2020, published 2023)
# Experiments:
# [1] = molecular target: T1, PD-L1 protein on the surface of MC38-hPDL1 tumor cells (Homo sapiens, UniProt Q9NZQ7); experiment: Induction of endocytosis of PD-L1 on the surface of tumor cells (flow cytometry); assay type: cell-based; settings: 16 hours incubation; for Emax: MC38-hPDL1 cells, read-out: MC38 maximum endocytosis rate; for IC50: inducing endocytosis of PD-L1, MC38-hPDL1 cells, read-out: MC38 IC50
# T1 construct: expressed in transfected cells; host or cells: MC38-hPDL1 (mouse colon cancer cells)
# Summary of the method: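 IC50 comes from nonlinear fits of endocytosis rate, calculated from the loss of surface PE-anti-CD274 flow signal relative to vehicle. Cells were MC38 mouse colon cancer cells engineered to express high human PD-L1. Compound exposure lasted 16 h at 37 °C, 5% CO2.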
# [2] = tested on: CHO-PDL1/Jurkat-PD1 cell pathway; experiment: Inhibition of CHO-PDL1/Jurkat-PD1 cell pathway (NFAT luciferase reporter); assay type: cell-based; settings: for EC50: 6 hours incubation, luciferase signal; for maximal fold induction: relative to the signal value of the non-dosed group, read-out: Maximum induction fold
# Summary of the method: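 CHO-K1 cells stably expressing PD-L1, plated overnight, then co-cultured with PD-1/NFAT-luc2 Jurkat cells plus compounds in RPMI 1640 with 2% FBS for 6 h at 37 °C. Luminescence read after One-Glo, 10 min at RT. EC50 fitted from the concentration–signal curve; maximum induction fold calculated relative to the non-dosed group.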
# T1 sequence (Q9NZQ7 19-290): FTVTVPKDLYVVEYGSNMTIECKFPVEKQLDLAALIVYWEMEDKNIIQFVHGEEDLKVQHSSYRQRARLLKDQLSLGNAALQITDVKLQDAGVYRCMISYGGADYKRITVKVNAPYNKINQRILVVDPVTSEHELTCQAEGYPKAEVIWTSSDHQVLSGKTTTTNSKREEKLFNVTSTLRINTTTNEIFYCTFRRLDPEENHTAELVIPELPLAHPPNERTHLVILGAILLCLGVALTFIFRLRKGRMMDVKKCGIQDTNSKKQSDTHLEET
Compound,Emax [1] [%],IC50 [1] [nM],EC50 [2] [nM],maximal fold induction [2]
"COc1nc(-c2cccc(-c3cccc(NC(=O)c4nc5c(n4C)CCN(C)C5)c3Cl)c2Cl)ccc1CN[C@H]1CCOC[C@@H]1O (relative stereo) [Embodiment 175, N-(2,2′-Dichloro-3′-(5-((((3,4-trans)-3-hydroxytetrahydro-2H-pyran-4-yl)amino)methyl)-6-methoxypyridin-2-yl)-[1,1′-biphenyl]-3-yl)-1,5-dimethyl-4,5,6,7-tetrahydro-1H-imidazo[4,5-c]pyridine-2-carboxamide]",98,0.4,86,3.6
"CNC(=O)CNCc1cnc(C(=O)Nc2cccc(-c3cccc(NC(=O)c4nc5c(n4C)CCN(C)C5)c3Cl)c2C)cc1OC [Embodiment 95, N-(2-Chloro-3′-(4-methoxy-5-(((2-(methylamino)-2-carbonylethyl)amino)methyl)picolinamido)-2′-methyl-[1,1′-biphenyl]-3-yl)-1,5-dimethyl-4,5,6,7-tetrahydro-1H-imidazo[4,5-c]pyridine-2-carboxamide]",94,2.3,94,3.8
"COc1nc(-c2cccc(-c3cccc(NC(=O)c4nc5c(n4C)CCN(C)C5)c3Cl)c2Cl)ccc1CNC1COC1 [Embodiment 114, N-(2,2′-Dichloro-3′-(6-methoxy-5-((oxetan-3-ylamino)methyl)pyridin-2-yl)-[1,1′-biphenyl]-3-yl)-1,5-dimethyl-4,5,6,7-tetrahydro-1H-imidazo[4,5-c]pyridine-2-carboxamide]",95,1.2,,
"COc1nc(-c2cccc(-c3cccc(NC(=O)c4nc5c(n4C)CCN(C)C5)c3Cl)c2Cl)ccc1CN1CC(F)C1 [Embodiment 120, N-(2,2′-Dichloro-3′-(5-((3-fluoroazetidin-1-yl)methyl)-6-methoxypyridin-2-yl)-[1,1′-biphenyl]-3-yl)-1,5-dimethyl-4,5,6,7-tetrahydro-1H-imidazo[4,5-c]pyridine-2-carboxamide]",95,1.2,70,3.2
"COc1nc(-c2cccc(-c3cccc(NC(=O)c4nc5c(n4C)CCN(C)C5)c3Cl)c2Cl)ccc1CN1CC2(COC2)C1 [Embodiment 124, N-(3′-(5-((2-Oxa-6-azaspiro[3.3]heptan-6-yl)methyl)-6-methoxypyridin-2-yl)-2,2′-dichloro-[1,1′-biphenyl]-3-yl)-1,5-dimethyl-4,5,6,7-tetrahydro-1H-imidazo[4,5-c]pyridine-2-carboxamide]",96,0.4,,
"COc1nc(-c2cccc(-c3cccc(NC(=O)c4nc5c(n4C)CCN(C)C5)c3Cl)c2Cl)ccc1CNC[C@H](C)O [Embodiment 127, (S)—N-(2,2′-Dichloro-3′-(5-(((2-hydroxypropyl)amino)methyl)-6-methoxypyridin-2-yl)-[1,1′-biphenyl]-3-yl)-1,5-dimethyl-4,5,6,7-tetrahydro-1H-imidazo[4,5-c]pyridine-2-carboxamide]",97,0.7,,
"COc1nc(-c2cccc(-c3cccc(NC(=O)c4nc5c(n4C)CCN(C)C5)c3Cl)c2Cl)ccc1CN1CC(C(=O)N(C)C)C1 [Embodiment 183, N-(2,2′-Dichloro-3′-(5-((3-(dimethylcarbamoyl)azetidin-1-yl)methyl)-6-methoxypyridin-2-yl)-[1,1′-biphenyl]-3-yl)-1,5-dimethyl-4,5,6,7-tetrahydro-1H-imidazo[4,5-c]pyridine-2-carboxamide]",95,,,
"COc1nc(-c2cccc(-c3cccc(NC(=O)c4nc5c(n4C)CCN(C)C5)c3Cl)c2Cl)ncc1CN1CC(CNC(C)=O)C1 [Embodiment 225, N-(3′-(5-((3-(Acetylaminomethyl)azetidin-1-yl)methyl)-4-methoxypyrimidin-2-yl)-2,2′-dichloro-[1,1′-biphenyl]-3-yl)-1,5-dimethyl-4,5,6,7-tetrahydro-1H-imidazo[4,5-c]pyridine-2-carboxamide]",93,,,
